Data as given in patent publication US20130274352A1, “Oral Drug Devices and Drug Formulations” (The Regents of the University of California, priority 2009, published 2013).
Read-outs that look alike come from different tables or passages of the source.

Columns and labels:
Caco-2 cells [1] = assay: Toxicity potential (TP) by MTT assay and synergy (S) of mixtures; assay type: cell-based, human
Method: As used herein “toxicity potential” or “TP” is used to assess the safety of CPEs and refers to the toxicity of one or more CPEs as determined using a Methyl Thiazole Tetrazolium (MTT) kit (American Type Culture Collection, Rockville, Md.). Caco-2 cells were seeded at 10^5 cells/well onto a 96-well plate. Enhancer solutions (100 μl) were applied for 30 minutes. 10 μl of reagent from an MTT kit (American Type Culture Collection, Rockville, Md.) was applied to each well for 5 hours, after which 100 μl of detergent was applied to each well and allowed to incubate in the dark at room temperature for about 40 hours. Absorbance was read at 570 nm (MTT dye) and 650 nm (detergent).
TP values are reported as the fraction of nonviable cells, as compared to the negative control, DMEM. TP values range from 0 to 1, with 0 indicating no mitrochondrial toxicity, and 1 representing maximum toxicity.
As used herein “synergy” or “S” refers to the difference between the linear average of the toxicity of the individual components and the experimentally measured toxicity of the mixture. Synergy was calculated as follows:
S=[X1·TP1+X2·TP2+X3·TP3]−TPmix Eq. 3
where X1, X2, and X3 are the weight fractions of single enhancers 1, 2, and 3, respectively, and TP1, TP2, TP3, and TPmix are the toxicity potentials of pure CPE 1, pure CPE 2, pure CPE 3, and the mixture of CPEs at the corresponding weight fractions X1, X2, and X3. All TP values in the equation above are obtained at the same total concentration. Since TP values can range from 0 to 1, maximum and minimum Synergy values are 1 and −1, respectively.
Caco-2 cells were seeded at 10^5 cells/well onto a 96-well plate. Enhancer solutions (100 μl) were applied for 30 minutes. 10 μl of reagent from an MTT kit (American Type Culture Collection, Rockville, Md.) was applied to each well for 5 hours, after which 100 μl of detergent was applied to each well and allowed to incubate in the dark at room temperature for about 40 hours. Absorbance was read at 570 nm (MTT dye) and 650 nm (detergent). Toxicity potential (TP) values are reported as the fraction of nonviable cells, as compared to the negative control, DMEM. TP values range from 0 to 1, with 0 indicating no mitrochondrial toxicity, and 1 representing maximum toxicity.

Caco-2 cells [2] = assay: Calcein entry into epithelial cells, fluorescence microscopy; assay type: cell-based, human; conditions: 0.01% PPS, 0.01% (w/v) calcein
Method: A solution containing a permeation enhancer and 0.01% (w/v) calcein dissolved in phosphate buffered saline was applied to Caco-2 cells. After 30 minutes, solutions were removed and replaced with a solution containing only calcein. After 1 hour, samples were washed 3× with phosphate buffered saline and viewed with a Zeiss fluorescence microscope.

Caco-2 monolayers [3] = assay: TEER over time with PPS (Example 5); assay type: cell-based, human; conditions: for decrease in TEER (% of initial value): 5 hours
Method: Caco-2 cell line HTB-37 (ATCC, Rockville, Md.), derived from human colon cells, was used for all experiments. Cells were maintained in DMEM supplemented with 25 IU/ml of penicillin, 25 mg/L of streptomycin, 250 μg/L of amphotericin B and 100 ml/L of fetal bovine serum. Monolayers were grown on BD Biocoat™ HTS collagen filter supports (BD Biosciences, Bedford, Mass.) according to supplier instructions. At the end of the growth period, the integrity of the cell monolayer was confirmed by transepithelial electrical resistance (TEER) measurements (Millicell-ERS voltohmmeter, Millipore, Billerica, Mass.). Only monolayers with TEER values in the range of 150-200 Ω-cm^2 were used for further experimentation.

Caco-2 monolayers [4] = assay: Transwell permeability of sulforhodamine-B or FITC-insulin with PPS; assay type: cell-based, human
Excerpt: The withdrawn sample was immediately replaced with an equivalent amount of the experimental media.

Caco-2 monolayers [5] = assay: TEER reversibility after PPS exposure; assay type: cell-based, human; conditions: 0.03% w/v PPS for 10 minutes or 1 hour; within 24 hours of removal
Caco-2 monolayer [6] = assay: Confocal laser microscopy of FITC-insulin permeation with PPS; assay type: cell-based, human; conditions: 5 hours
Excerpt: Following fixation, cells were gently washed with HBSS, membranes gently removed from the plastic insert, and were mounted on a microscopy slide with DAPI containing cell mounting media (Vectashield® Hardset®, Vector Laboratories, Burlingame, Calif.). All samples were imaged on a confocal microscope (Leica and Olympus Fluoview 500).

[7] = Plasma sCT concentration after intestinal injection of sCT with or without PPS; assay type: in vivo, rat; conditions: 1% w/v PPS with sCT 3 mg/kg, SD rats
Method: Adult male Sprague-Dawley (SD) rats of 275-300 g, fasted for 7 hours were used for all studies. A midline abdominal incision of 2.5-3.0 cm was made in animals anesthetized by 1.5-3.0% isoflurane to expose the gastrointestinal system. […] Incision was then closed with sterile vicryl […] (muscular), and Vetbond® tissue glue (skin). Blood samples were collected up to 5 hours by tail vein bleeding (heparinized tubes for plasma Calcium, and EDTA tubes for plasma sCT determination), and plasma was separated for analysis of both pharmacodynamic and pharmacokinetic response. Pharmacodynamic response was measured by quantifying plasma calcium levels using a colorimetric calcium assay kit (Sciencell Laboratories, Carlsbad, Calif.); and pharmacokinetic efficacy was tested by quantifying plasma concentrations of salmon calcitonin (sCT) using an extraction-free ELISA kit (Bachem Americas Inc., Torrance, Calif.) following manufacturer's protocols.

intestinal epithelium = assay: Intestinal tissue histology after PPS; assay type: in vivo, rat; conditions: 0.1% and 1% w/v PPS, 0.5 ml, 5 hrs, SD rats
Method: Histological studies were performed to evaluate the possibility of damage caused by PPS in the intestine. […] The sections were stained using hematoxylin-eosin staining and imaged at 50× magnification using an inverted light microscope to determine signs of pathological changes.

Caco-2 monolayers [8] = system: Caco-2 monolayers
Method: (§4) Upper filter supports containing viable Caco-2 monolayers were transferred into a 24-well BD Falcon plate and 1 ml of media was dispensed into each basolateral compartment. Solutions containing the CPE (“enhancer solutions”) were applied to the apical compartment and TEER readings were taken at 10 minutes. TEER recovery was assessed by removing enhancer solutions after 30 minutes, applying fresh media, and measuring TEER values at 24 hours.

[9] = system: Caco-2 cell line (HTB-37)
Method: 10 μL of MTT solution (5 mg/mL) was added to each well for 4 h (37° C.), after which 100 μL of 100% DMSO was applied and the plates were incubated for 1 hr with moderate shaking Absorbance was measured at 570 nm using a Tecan Saffire™ fluorescent microplate reader (Tecan Group Ltd, Mannedorf, Switzerland).

Caco-2 monolayers [10] = assay: Permeability of tritium-labeled mannitol or 70 kDa dextran across Caco-2 monolayers
Method: (§1) Solutions containing CPEs and 1 μCi/ml of tritium-labeled mannitol or 70 kDa dextran (American Radiolabeled Chemicals, St. Louis, Mo.) were applied to the apical side of Caco-2 monolayers. Samples were taken from the basolateral compartment every 10 minutes for 1 hour and the radiolabeled contents were analyzed with a scintillation counter (Packard Tri-Carb 2100 TR, Meriden, Conn.).
(§2) where ΔM is the amount of solute transported across the barrier in the time Δt, CM is the concentration of solute in the apical compartment, and Axs is the cross-sectional area of epithelium in contact with the apical solution.
(§3) Positive control experiments were performed on BD Biocoat™ filter supports in the absence of cells.

Caco-2 monolayer [11] = conditions: 0.1% enhancer (total), 10 min
Method: The Examples described herein used 1% Triton X-100 as the positive control.
All TEER values were normalized by their initial values.
where TEERCPE and TEER+ are the resistance values (% of initial) of the enhancer solution and positive control solution, respectively, after 10 minutes of exposure. EP lies on a scale of 0 to 1, with 1 representing maximum enhancement as compared to the positive control.
Caco-2 cell line HTB-37 (ATCC, Rockville, Md.), derived from human colon cells, was used for all experiments. Cells were maintained in DMEM supplemented with 25 IU/ml of penicillin, 25 mg/L of streptomycin, 250 ug/L of amphotericin B and 100 ml/L of fetal bovine serum. Monolayers were grown on BD Biocoat™ collagen filter supports (Discovery Labware, Bedford, Mass.) according to supplier instructions. […]
as §4

Caco-2 cells [12] = conditions: 0.1% enhancer
Method: Enhancer solutions (100 μl) were applied for 30 minutes. 25 μl of the solution was then transferred to a fresh 96-well plate and mixed with 25 μl of LDH reagent from the CytoTox 96® assay (Promega, Madison, Wis.) and allowed to react for 30 minutes in the dark at room temperature. Stop solution (25 μl) was then added to each well, and the absorbance was read at 490 nm. LDH potential (LP) values are reported as the fraction of maximal LDH release, as determined by the positive control lysis solution provided with the assay kit (˜1% Triton-X100).
Equation 5 was used to assess the relative contribution of transcellular and paracellular pathways to permeability of the intestinal epithelium. […] According to Equation 4, the line EP=LP corresponds to enhancers that act predominantly by the transcellular route (paracellular contributions are negligible). Enhancers lying on the vertical EP axis primarily utilize the paracellular pathway, since there is no relationship between EP and LP when transcellular contributions are negligible. The relative contribution of the paracellular pathway is higher for enhancers falling closer to the EP axis than to the EP=LP line.

in vitro = conditions: human, Caco-2
Method: as §1, §2, §3

B. thailendensis = assay: Minimum inhibitory concentration, broth microdilution; assay type: cell-based; conditions: 18 hours, 37° C.
Method: Minimum inhibitory concentration against B. thailendensis was determined. Broth microdilution method was followed for MIC determination. Briefly, fresh cultures were grown on the day of experiment using the protocol described below.
Low sodium Leuria-Bertani (LSLB) broth (10 g tryptone 1-1, 5 g yeast extract 1-1, 5 g NaCl 1-1) made in ultrapure water and sterilized via autoclaving (121° C., 15 min) was used for culturing B. thailendensis. Culturing protocol was same as given above for E. coli.
The cultures were adjusted to 5.5×10^5 cfu/ml and used within 30 minutes to minimize change in bacterial counts. Cultures were dispensed in 96-well cell culture polypropylene plates (Corning, Lowell, Mass.) at 90 μl/well. Serial dilutions of test formulations were made at 10× concentration. Inoculums in each well were incubated with 10 μl of test formulation dilutions for 18 hours at 37° C. under humidified conditions. At the end of incubation period, the plates were visibly inspected for bacterial growth. Colonies were counted for selected wells by plating culture dilutions on LSLB plates.

[13] = system: Primary epidermal keratinocyte cultures (HEKa); assay: Keratinocyte cytotoxicity (LC50), MTT; assay type: cell-based, human; conditions: HEKa cells
Method: Primary epidermal keratinocyte cultures from an adult human source (HEKa) were purchased from Invitrogen Corp (Carlsbad, Calif.) and used for all cytotoxicity experiments. Cells were maintained in a humidified incubator (37° C., 5% CO2), in EpiLife medium with 60 μM calcium and phenol red, supplemented with 10 ml/l human keratinocyte growth supplement, 5 IU/ml penicillin and 5 μg/ml streptomycin. All components of growth media were purchased from Invitrogen Corp (Carlsbad, Calif.). Cells were grown to 70-80% confluence in cell culture flasks (Corning, Lowell, Mass.) as per suppliers' protocols.
At the end of the growth period, keratinocyte cells were seeded at a density of 10^4 cells/well in 96-well tissue culture treated polystyrene plates (Corning, Lowell, Mass.) and incubated overnight to allow cell attachment. Cells were supplied with fresh EpiLife medium (90 μl/well) at the start of experiment, followed by application of test formulations (10 μl/well). The final concentration of test formulations in each well was 0.0001% w/v. This concentration limit was determined based on the LC50 values of component chemicals for HEKa cell line, which were determined in a separate experiment. The cells were incubated with the test formulations for 1 hour. […] The plates were incubated for 16 hours in a humidified environment and absorbance was read at 570 nm.

## CCCCCCCCCC[N+](C)(C)C.[Br-] [DTAB, Decyltrimethyl ammonium bromide]
Caco-2 cells [1]; 0.1% enhancer (total), 30 min
  TP: 0.56

## CCCCCCCCCCCCCCCC[N+](C)(C)CCCS(=O)(=O)[O-] [PPS, Palmityldimethyl ammonio propane sulfonate]
Caco-2 cells [1]; 0.01% (w/v) enhancer, 30 min
  TP: 0
Caco-2 cells [2]
  epithelial cells with calcein transport into the cell: more than 75%
Caco-2 monolayers [3]; 0.01% w/v PPS
  decrease in TEER (% of initial value): 50%
Caco-2 monolayers [3]; 0.03% w/v PPS
  decrease in TEER (% of initial value): ~70%
Caco-2 monolayers [3]; higher concentration (0.03% w/v PPS), 15 minutes
  drop in TEER: −50%
Caco-2 monolayers [4]; 0.01% PPS
  increase in sulforhodamine transport over negative control: 1.7 fold
Caco-2 monolayers [4]; 0.03% PPS
  increase in sulforhodamine transport over negative control: 2.6 fold
Caco-2 monolayers [4]; 0.03% w/v PPS
  enhancement of FITC-insulin transport: 2.3 fold
Caco-2 monolayers [4]; lower concentrations of PPS (0.01% w/v)
  enhancement of FITC-insulin transport: did not increase significantly
Caco-2 monolayers [5]
  TEER values returned (% of initial): 90-100%
Caco-2 monolayer [6]; 0.01% PPS
  increase of FITC-insulin transport across the monolayer (fluorescence intensity): 1.3 fold
Caco-2 monolayer [6]; 0.03% w/v PPS
  increase of FITC-insulin transport across the monolayer (fluorescence intensity): 3.1 fold
[7]
  enhancement of systemic sCT availability based on peak plasma concentrations: 45-50 fold
Intestinal epithelium
  pathological damage to the intestinal epithelium: no evidences of necrosis or specific inflammation
Caco-2 monolayers [8]
  cell monolayer structure by TEER recovery: did not damage cell monolayer structure
[9]
  cell viability: ~88%
[9]; Caco-2
  toxicity on Caco-2 cells: no detectable toxicity

## c1ccc(N2CCNCC2)cc1 [PPZ, Phenyl piperazine]
Caco-2 cells [1]; 0.1% enhancer (total), 30 min
  TP: 0.09
Caco-2 monolayers [10]; enhancer at 0.1%, 70 kDa dextran
  increase of 70 kDa dextran permeability: > 11 fold
Caco-2 monolayers [10]; enhancer at 0.1%, mannitol
  increase of mannitol permeability: more than 14 fold
Caco-2 monolayer [11]
  EP: 0.95
Caco-2 monolayers [8]; after removal of 0.1% PPZ, within 24 hours
  TEER recovery, % of original value: 100%
Caco-2 cells [12]
  K: 0.86

## CCN(CC)c1ccc2c(-c3ccc(S(=O)(=O)O)cc3S(=O)(=O)[O-])c3ccc(=[N+](CC)CC)cc-3oc2c1 [Sulforhodamine-B]
Caco-2 monolayers [4]; PPS 0.01%, 0.15 mg
  % Transport: 3.3 ± 0.4%
  Apparent Permeability (Papp): 6.0 ± 0.6 10^−6 cm/s
Caco-2 monolayers [4]; PPS 0.03%, 0.15 mg
  % Transport: 5.1 ± 0.9%
  Apparent Permeability (Papp): 9.1 ± 1.6 10^−6 cm/s
Caco-2 monolayers [4]; no PPS, 0.15 mg
  % Transport: 1.9 ± 1.3%
  Apparent Permeability (Papp): 3.5 ± 2.3 10^−6 cm/s

## OC[C@@H](O)[C@@H](O)[C@H](O)[C@H](O)CO [mannitol, reference compound]
In vitro
  Papp A→B at 1 h, 1 μCi/ml: 4.3 nm/s

## FITC-insulin: tracer molecule, FITC-insulin (˜6,000 da)
Caco-2 monolayers [4]; Caco-2
  Apparent Permeability (Papp): 15.6 ± 0.7 10^−6 cm/s

## Sodium laureth sulfate [SLA]
Caco-2 cells [1]
  TP: 0.88

## benzalkoniium chloride [BZK]
B. thailendensis
  MIC: 0.00048 % w/v
[13]
  LC50: 0.00078 % w/v

## dextran [reference compound]
Caco-2 monolayers [10]; no CPE, Caco-2 monolayers
  average permeability in the absence of CPEs: 4.9×10^−7±2.3×10^−7

## sorbitan monolaurate [S20]
B. thailendensis
  MIC: low antibacterial potency
[13]
  LC50: negligible toxicity
